# Measurements as given in publication PMC9253268 (Frontiers in Immunology, 2022).
# Legend:
# [1] = tested on: NLRP3 inflammasome-induced pyroptosis; assay: NLRP3 inflammasome-induced pyroptosis markers in AIA-M rats (TUNEL, IHC, Western blotting, ELISA); format: in vivo, rat; settings: all p < 0.05
# Protocol: The occurrence of pyroptosis in both MH7A cells and synovium tissues in AIA-M rats was determined by in situ TUNEL staining (TUNEL Andy Fluor™ 594 Apoptosis Detection Kit, ABP Biosciences, Wuhan, China) in accordance with the manufacturer’s protocol. Fluorescence images were visualized and photographed with inverted fluorescence microscopes (MF53, MSHOT, Guangzhou, China; Olympus, BX51, Tokyo, Japan). Detailed information on TUNEL assay is provided in Supplementary Materials Section 18 .
# To detect the expression levels of NLPR3/ASC of the knee joints in AIA-M rats and corresponding treatment groups, immunohistochemical staining was carried out using a DAB kit (Cat No. AR1027, Boster Biological Technology Co., Ltd., Wuhan, China) and a rabbit/mouse two-step detection kit (Cat No. SV0002/SV0001, Boster Biological Technology Co., Ltd., Wuhan, China) according to the routine protocols. Immunohistochemistry quantification was performed using ImageJ (Image Progressing and Analysis in Java, version 1.42q, https://imagej.nih.gov/ij/), following the ImageJ User Guide. […]
# Cell apoptosis was determined by in situ terminal deoxynucleotidyl transferase-mediated dUTP-biotin nick end-labeling reaction (TUNEL) staining (TUNEL Andy Fluor™ 594 Apoptosis Detection Kit, ABP Biosciences, Wuhan, China) in accordance with the […]
# [2] = tested on: AIA-M rat model; assay: Histology of knee joints of AIA-M rats (H&E, safranin O fast green, Masson trichrome); format: in vivo; settings: all p < 0.05
# Protocol: The viscera indexes were calculated by the weight of the thymus, spleen, liver, and kidney relative to total […]. Histological changes were examined using hematoxylin and eosin (H&E), safranin O-fast green (Solarbio, Beijing, China), and Masson trichrome staining (Baso, Wuhan, China) according to routine protocols. Please see detailed information on the protocol in Supplementary Materials Section 5 . […]
# after BHGZD administration (5), respectively.
# The rats were acclimatized to an apparatus consisting of individual perspex boxes. With the aid of syringe (1mL), 500μL acetone was sprayed gently from a short distance to the middle of the plantar surface of hind paw. […] The amount of time that rats were licking and/or shaking the hind paw was recorded during 5min after acetone application and was used as an index of nocifensive response for cold hypersensitivity (6). The licking and/or shaking time was measured at 0, 5, 10, 15, 25th day after BHGZD administration, […]
# For thermal-induced hyperalgesia, the rats were placed for 30minin an apparatus consisting of individual perspex boxes with Hargreaves radiant heat apparatus (Ugo Basile Srl, Comerio VA, Italy) and an infrared radiant heat (40W) source was directed to middle part of the plantar surface of the hind paw. […] The paw withdrawal latency was measured at 0, 5, 10, 15, 25th day after BHGZD administration, respectively. […]
smiles,measurement,setting,value
"CN(Cc1cnc2nc(N)nc(N)c2n1)c1ccc(C(=O)N[C@@H](CCC(=O)O)C(=O)O)cc1 [MTX, methotrexate]",activities of GSDMD-NT in sera and its levels in knee joints,[1],reduced
same,activity of LDH in the sera,[1],significantly decreased
same,"histopathological changes of knee joints (inflammatory cell infiltration, cartilage and bone destruction, synovial hyperplasia)",[2],apparently reversed
